“And” between values parts separate entries of the source, which are not always exact repeats. Identical values can stand only once. Each block holds one molecule with its values, some of them ahead of it.
Key:
mouse liver COMT = biological target: T1, mouse liver COMT (Mus musculus, UniProt O88587); assay: Mouse liver COMT activity after oral administration of test compounds; type: in vivo; conditions: 3 mg/kg oral, 3 h after administration
T1 construct: Aliquots of 0.5 ml of liver homogenates were preincubated; from tissue; host or cells: mouse liver homogenate (NMRI mice, dosed orally; ex vivo activity)
T1 sequence (O88587 1-265): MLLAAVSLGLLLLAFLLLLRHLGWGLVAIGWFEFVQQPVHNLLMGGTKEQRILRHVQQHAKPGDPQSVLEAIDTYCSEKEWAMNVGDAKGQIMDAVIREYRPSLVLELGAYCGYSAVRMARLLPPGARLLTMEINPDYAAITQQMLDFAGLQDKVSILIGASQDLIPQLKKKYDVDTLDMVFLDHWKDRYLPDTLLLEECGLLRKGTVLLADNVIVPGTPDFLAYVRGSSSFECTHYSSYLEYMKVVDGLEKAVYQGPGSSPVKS

[1] = system: Neuro 2A mouse neuroblastoma cells; assay: Cell toxicity: Neuro 2A cell viability (calcein-AM); type: cell-based; conditions: Neuro 2A cells, 30 μM, 24 h exposure

COMT activity (% of control) (mouse liver COMT; 3 mg/kg): 59 % of control and 59.9 % of control
Compound: Cc1noc(-c2cc(O)c(O)c([N+](=O)[O-])c2)n1 [Compound 1, 5-(3-methyl-1,2,4-oxadiazol-5-yl)-3-nitropyrocatechol, reference compound]
% of viable cells [1]: 55% and 55.1%

COMT activity (% of control) (mouse liver COMT; 3 mg/kg): 79 % of control and 78.8 % of control
Compound: Cc1nc(-c2cc(O)c(O)c([N+](=O)[O-])c2)no1 [Compound 2, 5-(5-Methyl-[1,2,4]oxadiazol-3-yl)-3-nitro-benzene-1,2-diol]
% of viable cells [1]: 92.5%

COMT activity (% of control) (mouse liver COMT; 3 mg/kg): 64 % of control and 63.6 % of control
Compound: Cc1nnc(-c2cc(O)c(O)c([N+](=O)[O-])c2)o1 [Compound 3, 5-(5-Methyl-[1,3,4]oxadiazol-2-yl)-3-nitro-benzene-1,2-diol]
% of viable cells [1]: 100.5%

Compound: O=[N+]([O-])c1cc(-c2nc(-c3cc[n+]([O-])cc3)no2)cc(O)c1O [Compound 4, 3-Nitro-5-[3-(1-oxy-pyridin-4-yl)-[1,2,4]oxadiazol-5-yl]-benzene-1,2-diol]
COMT activity (% of control) (mouse liver COMT): 42.1 % of control
% of viable cells [1]: 98.3%

Compound: O=[N+]([O-])c1cc(-c2nc(-c3ccc[n+]([O-])c3)no2)cc(O)c1O [Compound 5, 3-Nitro-5-[3-(1-oxy-pyridin-3-yl)-[1,2,4]oxadiazol-5-yl]-benzene-1,2-diol]
COMT activity (% of control) (mouse liver COMT): 58.4 % of control
% of viable cells [1]: 93.8%

Compound: O=[N+]([O-])c1cc(-c2nc(-c3cccc[n+]3[O-])no2)cc(O)c1O [Compound 6, 3-Nitro-5-[3-(1-oxy-pyridin-2-yl)-[1,2,4]oxadiazol-5-yl]-benzene-1,2-diol]
COMT activity (% of control) (mouse liver COMT): 101.0 % of control
% of viable cells [1]: 107.1%

Compound: O=[N+]([O-])c1cc(-c2nc(-c3c(Cl)c[n+]([O-])cc3Cl)no2)cc(O)c1O [Compound 7, 5-[3-(3,5-Dichloro-1-oxy-pyridin-4-yl)-[1,2,4]oxadiazol-5-yl]-3-nitro-benzene-1,2-diol]
COMT activity (% of control) (mouse liver COMT): 14.2 % of control
% of viable cells [1]: 56.9%

Compound: O=[N+]([O-])c1cc(-c2nc(-c3cc[n+]([O-])c(Cl)c3)no2)cc(O)c1O [Compound 8, 5-[3-(2-Chloro-1-oxy-pyridin-4-yl)-[1,2,4]oxadiazol-5-yl]-3-nitro-benzene-1,2-diol]
COMT activity (% of control) (mouse liver COMT): 55.4 % of control
% of viable cells [1]: 106.7%

Compound: O=[N+]([O-])c1cc(-c2nc(-c3cc[n+]([O-])c(-c4ccccc4)c3)no2)cc(O)c1O [Compound 9, 3-Nitro-5-[3-(1-oxy-2-phenyl-pyridin-4-yl)-[1,2,4]oxadiazol-5-yl]-benzene-1,2-diol]
COMT activity (% of control) (mouse liver COMT): 80.6 % of control
% of viable cells [1]: 79.7%

Compound: O=[N+]([O-])c1cc(-c2nc(-c3cc[n+]([O-])c(-c4ccoc4)c3)no2)cc(O)c1O [Compound 10, 5-[3-(2-Furan-3-yl-1-oxy-pyridine-4-yl)-[1,2,4]oxadiazol-5-yl]-3-nitro-benzene-1,2-diol]
COMT activity (% of control) (mouse liver COMT): 95.2 % of control
% of viable cells [1]: 69.3%

Compound: O=[N+]([O-])c1cc(-c2nc(-c3cc[n+]([O-])c(N4CCOCC4)c3)no2)cc(O)c1O [Compound 11, 5-[3-(2-Morpholin-4-yl-1-oxy-pyridine-4-yl)-[1,2,4]oxadiazol-5-yl]-3-nitro-benzene-1,2-diol]
COMT activity (% of control) (mouse liver COMT): 63.9 % of control
% of viable cells [1]: 105.7%

Compound: O=[N+]([O-])c1cc(-c2nc(-c3cc[n+]([O-])c(N4CCSCC4)c3)no2)cc(O)c1O [Compound 12, 3-Nitro-5-[3-(1-oxy-2-thiomorpholin-4-yl-pyridin-4-yl)-[1,2,4]oxadiazol-5-yl]-benzene-1,2-diol]
COMT activity (% of control) (mouse liver COMT): 92.9 % of control
% of viable cells [1]: 91.7%

Compound: O=[N+]([O-])c1cc(-c2nc(-c3cc[n+]([O-])c(Sc4ccccc4)c3)no2)cc(O)c1O [Compound 13, 3-Nitro-5-[3-(1-oxy-2-phenylsulfanyl-pyridin-4-yl)-[1,2,4]oxadiazol-5-yl]-benzene-1,2-diol]
COMT activity (% of control) (mouse liver COMT): 102.3 % of control

Compound: O=[N+]([O-])c1cc(-c2nc(-c3cc[n+]([O-])c(Oc4ccccc4)c3)no2)cc(O)c1O [Compound 14, 3-Nitro-5-[3-(1-oxy-2-phenoxy-pyridin-4-yl)-[1,2,4]oxadiazol-5-yl]-benzene-1,2-diol]
COMT activity (% of control) (mouse liver COMT): 76.8 % of control
% of viable cells [1]: 83.5%

Compound: Cc1cc(-c2noc(-c3cc(O)c(O)c([N+](=O)[O-])c3)n2)cc(C)[n+]1[O-] [Compound 15, 5-[3-(2,6-Dimethyl-1-oxy-pyridine-4-yl)-[1,2,4]oxadiazol-5-yl]-3-nitro-benzene-1,2-diol]
COMT activity (% of control) (mouse liver COMT): 79.2 % of control
% of viable cells [1]: 97.1%

Compound: CS(=O)(=O)c1cc(-c2noc(-c3cc(O)c(O)c([N+](=O)[O-])c3)n2)cc[n+]1[O-] [Compound 16, 5-[3-(2-Methanesulfonyl-1-oxy-pyridine-4-yl)-[1,2,4]oxadiazol-5-yl]-3-nitro-benzene-1,2-diol]
COMT activity (% of control) (mouse liver COMT): 85.9 % of control
% of viable cells [1]: 64.6%

Compound: CSc1cc(-c2noc(-c3cc(O)c(O)c([N+](=O)[O-])c3)n2)cc[n+]1[O-] [Compound 17, 5-[3-(2-Methylsulfanyl-1-oxy-pyridine-4-yl)-[1,2,4]oxadiazol-5-yl]-3-nitro-benzene-1,2-diol]
COMT activity (% of control) (mouse liver COMT): 89.9 % of control
% of viable cells [1]: 96.0%

Compound: O=[N+]([O-])c1cc(-c2nc(-c3cc(Br)c[n+]([O-])c3)no2)cc(O)c1O [Compound 19, 5-[3-(5-Bromo-1-oxy-pyridin-3-yl)-[1,2,4]oxadiazol-5-yl]-3-nitro-benzene-1,2-diol]
COMT activity (% of control) (mouse liver COMT): 45.2 % of control
% of viable cells [1]: 100.1%

Compound: Cc1ccc(-c2noc(-c3cc(O)c(O)c([N+](=O)[O-])c3)n2)c[n+]1[O-] [Compound 20, 5-[3-(6-Methyl-1-oxy-pyridin-3-yl)-[1,2,4]oxadiazol-5-yl]-3-nitro-benzene-1,2-diol]
COMT activity (% of control) (mouse liver COMT): 56.6 % of control

Compound: Cc1cc[n+]([O-])cc1-c1noc(-c2cc(O)c(O)c([N+](=O)[O-])c2)n1 [Compound 21, 5-[3-(4-Methyl-1-oxy-pyridin-3-yl)-[1,2,4]oxadiazol-5-yl]-3-nitro-benzene-1,2-diol]
COMT activity (% of control) (mouse liver COMT): 95.6 % of control

Compound: O=[N+]([O-])c1cc(-c2nc(-c3cc(-c4ccccc4)c[n+]([O-])c3)no2)cc(O)c1O [Compound 22, 3-Nitro-5-[3-(1-oxy-5-phenyl-pyridin-3-yl)-[1,2,4]oxadiazol-5-yl]-benzene-1,2-diol]
COMT activity (% of control) (mouse liver COMT): 111.6 % of control

Compound: O=[N+]([O-])c1cc(-c2nc(-c3ccc(Cl)[n+]([O-])c3)no2)cc(O)c1O [Compound 23, 5-[3-(6-Chloro-1-oxy-pyridin-3-yl)-[1,2,4]oxadiazol-5-yl]-3-nitro-benzene-1,2-diol]
COMT activity (% of control) (mouse liver COMT): 43 % of control
% of viable cells [1]: 41.1%

Compound: O=[N+]([O-])c1cc(-c2nc(-c3ccc[n+]([O-])c3Cl)no2)cc(O)c1O [Compound 24, 5-[3-(2-Chloro-1-oxy-pyridin-3-yl)-[1,2,4]oxadiazol-5-yl]-3-nitro-benzene-1,2-diol]
COMT activity (% of control) (mouse liver COMT): 71.8 % of control
% of viable cells [1]: 93.7%

Compound: Cc1ccc(-c2noc(-c3cc(O)c(O)c([N+](=O)[O-])c3)n2)c(Cl)[n+]1[O-] [Compound 25, 5-[3-(2-Chloro-6-methyl-1-oxy-pyridin-3-yl)-[1,2,4]oxadiazol-5-yl]-3-nitro-benzene-1,2-diol]
COMT activity (% of control) (mouse liver COMT): 23.1 % of control
% of viable cells [1]: 100.2%

Compound: O=[N+]([O-])c1cc(-c2nc(-c3ccc[n+]([O-])c3N3CCOCC3)no2)cc(O)c1O [Compound 26, 5-[3-(2-Morpholin-4-yl-1-oxy-pyridin-3-yl)-[1,2,4]oxadiazol-5-yl]-3-nitro-benzene-1,2-diol]
COMT activity (% of control) (mouse liver COMT): 35.5 % of control
% of viable cells [1]: 110.9%

Compound: CSc1ccc(-c2noc(-c3cc(O)c(O)c([N+](=O)[O-])c3)n2)c[n+]1[O-] [Compound 27, 5-[3-(6-Methylsulfanyl-1-oxy-pyridin-3-yl)-[1,2,4]oxadiazol-5-yl]-3-nitro-benzene-1,2-diol]
COMT activity (% of control) (mouse liver COMT): 47.5 % of control
% of viable cells [1]: 95.7%

Compound: O=[N+]([O-])c1cc(-c2nc(-c3ccc(C(F)(F)F)[n+]([O-])c3)no2)cc(O)c1O [Compound 28, 3-Nitro-5-[3-(1-oxy-6-trifluoromethyl-pyridin-3-yl)-[1,2,4]oxadiazol-5-yl]-benzene-1,2-diol]
COMT activity (% of control) (mouse liver COMT): 11.3 % of control
% of viable cells [1]: 87.0%

Compound: O=[N+]([O-])c1cc(-c2nc(-c3cc[n+]([O-])c4ccccc34)no2)cc(O)c1O [Compound 34, 3-Nitro-5-[3-(1-oxy-quinolin-4-yl)-[1,2,4]oxadiazol-5-yl]-benzene-1,2-diol]
COMT activity (% of control) (mouse liver COMT): 88.6 % of control

Compound: O=[N+]([O-])c1cc(-c2nc(-c3cc4ccccc4[n+]([O-])c3)no2)cc(O)c1O [Compound 35, 3-Nitro-5-[3-(1-oxy-quinolin-3-yl)-[1,2,4]oxadiazol-5-yl]-benzene-1,2-diol]
COMT activity (% of control) (mouse liver COMT): 81.2 % of control

Compound: O=[N+]([O-])c1cc(-c2nc(COc3ccc(C(F)(F)F)c[n+]3[O-])no2)cc(O)c1O [Compound 44, 3-Nitro-5-[3-(1′-oxy-5-trifluoromethyl-pyridin-2-yloxymethyl)-[1,2,4]oxadiazol-5-yl]-benzene-1,2-diol]
COMT activity (% of control) (mouse liver COMT): 24.5 % of control
